Assays:
V2122 [1] = target: T1, V2122 (Streptomyces avidinii, UniProt P22629, E125D/E140N/N47D/N73G/R108K/R127K/S51D/S69N/Y107S/Y46S); test: ITC binding analysis of V2122 and compounds; conditions: 25 μM V2122, PBS, 25° C.
T1 construct: T7-Tag; made in house
Description: Microcal iTC200 (MicroCal, Northampton, Mass.) was used for the measurement.
For the measurement, concentration of the stock solutions was adjusted to a ten-fold concentration of V2122 to be measured. Into a cell of a calorimeter, 25 μM of V2122 was placed, and each solution was added dropwise at a stirring speed of 1000 rpm at 25° C. Obtained data was analyzed using ORIGIN, and the titration curve was fitted based on the one-site binding isotherm.

V2122 [2] = target: T1, V2122; test: SPR analysis of affinity between V2122 and compound; format: binding
Description: Interaction of V2122, which is a LISA314 modified protein purified as described above, with Compound C was investigated by surface plasmon resonance (SPR). More specifically, using Biacore T200 (GE Healthcare BioScience Corp.) as a measuring instrument, and Sensor Chip NTA (GE Healthcare BioScience Corp.) as a sensor chip, the protein was immobilized on the sensor chip by way of His-Tag having been fused to the core protein. The running buffer was prepared using HBS-P(+), as described in the manual. A two-fold dilution series was prepared in nine steps by diluting a 1600 nM solution using the running buffer. The affinity was measured in the kinetics mode, and acquired data was subjected to equilibrium analysis using Biacore T200 Evaluation Software to determine the affinity.

[3] = system: human Burkitt lymphoma Ramos tumor; test: In vivo imaging, Ramos heterotransplantation model; parameters: species or system nude mice; conditions: pre-mixed with the antibody, intravenous
Description: The thus purified Rituximab-scFv-V2122 was preliminarily mixed with Psyche F-IRDye 800 (Compound 44 in Example) dissolved in DMSO (final concentration is ten-fold molar concentration), and incubated on ice for 10 minutes. The buffer was then replaced with Japanese Pharmacopoeia physiological saline (Otsuka Pharmaceutical Co., Ltd.) using Zeba Spin Desalting Column (Thermo Fisher Scientific Inc.).
Ramos cell suspension and Matrigel Matrix (Corning) were mixed in a ratio of 1:1 (5×10^6 cells/0.1 mL), and 0.1 mL of the mixed liquid was administered subcutaneously in the left side of 5 to 6-week-old female nude mice (Sankyo Labo Service Corporation, Inc.). The mice were bred for several weeks to produce tumor. One week before imaging, the feed was switched to a low fluorescence feed (iVid #1, Oriental Yeast Co., Ltd.) and the breeding was continued. […]
Rituximab-scFv-V2122 antibody (25 μg, 50 μg, 100 μg), preliminarily labeled with fluorescence by reacting it with Psyche F-IRDye 800 (Compound 44 in Example), was intravenously administered to nude mice having established human Burkitt lymphoma Ramos. For investigation into accumulation in tumor, accumulation of IRDye 800 in the tumor was evaluated 2, 24 and 48 hours after the administration, using in vivo photo-imaging instrument Clairvivo OPT plus (Shimadzu Corporation) (FIG. 19).

DLD1 tumor = test: In vivo imaging, DLD1 heterotransplantation model; parameters: species or system nude mice; conditions: pre-mixed with the antibody, intravenous
Description: The thus purified anti-epiregulin scFv-V2122 was mixed with Psyche F-IRDye 800 (Compound 44 in Example) dissolved in DMSO (final concentration was ten-fold molar concentration), and the mixture was incubated on ice for 10 minutes. The buffer was then replaced with Japanese Pharmacopoeia physiological saline (Otsuka Pharmaceutical Co., Ltd.) using Zeba Spin Desalting Column (Thermo Fisher Scientific Inc.) and was stored under cooling. Epiregulin IgG was labeled using ICG Labeling Kit-NH2 (Dojindo Laboratories).
Suspension liquid of human colorectal cancer-derived DLD1 cell and Matrigel Matrix (Corning) were mixed in a ratio of 1:1 (5×10^6 cells/0.1 mL), and 0.1 mL of the mixed liquid was administered subcutaneously in the left side of 5 to 6-week-old female nude mice (Sankyo Labo Service Corporation, Inc.). The mice were bred for several weeks to produce tumor. One week before imaging, the feed was switched to a low fluorescence feed (iVid #1, Oriental Yeast Co., Ltd.) and the breeding was continued. […]
Anti-epiregulin scFv-V2122 antibody (25 μg, 50 μg, 100 μg) preliminarily labeled with fluorescence by allowing it to react with Psyche F-IRDye 800 (Compound 44 in Example), or fluorescent-labeled epiregulin IgG (50 μg) was intravenously administered to nude mice having established DLD1 tumor. […]

Rituximab-scFv-V2122 = test: Flow cytometry: binding of FITC-labeled compound to Rituximab-scFv-V2122 on RAMOS cell; format: cell-based; conditions: RAMOS cells pre-incubated with Rituximab-scFv-V2122; compound 3 nM, 10 nM, 30 nM
Description: The thus refolded and purified Rituximab-scFv-V2122 was evaluated regarding binding potential with RAMOS (human Burkitt lymphoma) cell (JCRB Cell Bank), which is a CD20 positive cell. More specifically, Rituximab-scFv-V2122 was diluted with PBS into three concentrations (0.05, 0.5, 5 μg/mL). 1×10^6 cells were placed in a 1.5 mL tube, centrifuged at 400×g for 4 minutes, and the supernatant was discarded to collect the cells. The collected cells were added with 100 μL of the diluted Rituximab-scFv-V2122, mixed well, and then incubated on ice for 30 minutes. The content was centrifuged again, the supernatant was discarded, added with 1 mL of PBS to wash the cells, and the cells were then collected. […] After the incubation, the content was centrifuged again, the supernatant was discarded, added with 1 mL of PBS to wash the cells, and the cells were then collected. The collected cells were suspended in 500 μL of PBS, and measured on a flow cytometer (guava easyCyte Single System; Merck Millipore).

T1 sequence (P22629 37-163 Y46S/N47D/S51D/S69N/N73G/Y107S/R108K/E125D/R127K/E140N): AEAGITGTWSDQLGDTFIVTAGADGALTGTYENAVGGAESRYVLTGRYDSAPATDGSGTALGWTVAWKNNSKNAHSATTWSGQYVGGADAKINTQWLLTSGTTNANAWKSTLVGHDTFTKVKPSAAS

N=C1N[C@H]2[C@H](CS[C@H]2CCCCC(=O)NCCCCCC(=O)NCCNC(=O)CCCCCNC(=O)CCCC[C@@H]2SC[C@@H]3NC(=N)N[C@@H]32)N1 [Compound 7, (3aS,3a′S,4S,4′S,6aR,6a′R)-4,4′-(5,12,17,24-Tetraoxo-6,13,16,23-tetraazaoctacosane-1,28-diyl)bis[tetrahydro-1H-thieno[3,4-d]imidazole-2(3H)-iminium] di(2,2,2-trifluoroacetate)]
interaction with V2122 measured by ITC (V2122 [1]): exothermic, suggesting a strong binding
Kd (V2122 [2]): 3.15 nM

COC(=O)[C@H](CCCCNC(=O)c1cc(NC(=O)NCCOCCOCCNC(=O)CCCCC[N+]2=C(/C=C/C3=C(Oc4ccc(S(=O)(=O)O)cc4)C(=C/C=C4/N(CCCCS(=O)(=O)O)c5ccc(S(=O)(=O)O)cc5C4(C)C)/CCC3)C(C)(C)c3cc(S(=O)(=O)[O-])ccc32)cc(C(=O)NCCCC[C@H](NC(=O)CCCC[C@@H]2SC[C@@H]3NC(=N)N[C@@H]32)C(=O)OC)c1)NC(=O)CCCC[C@@H]1SC[C@@H]2NC(=N)N[C@@H]21 [Compound 44, 1-(1-((3,5-Bis(((S)-5-(5-((3aS,4S,6aR)-2-iminohexahydro-1H-thieno[3,4-d]imidazole-4-yl)pentanamido)-6-methoxy-6-oxohexyl)carbamoyl)phenyl)amino)-1,12-dioxo-5,8-dioxa-2,11-diazaheptadecane-17-yl)-2-((E)-2-((E)-3-(2-((E)-3,3-dimethyl-5-sulfo-1-(4-sulfobutyl)indoline-2-ilidene)ethylidene)-2-(4-sulfophenoxy)cyclohex-1-ene-1-yl)vinyl)-3,3-dimethyl-3H-indol-1-ium-5-sulfonate]
binding with Rituximab-scFv-V2122 antibody in vivo [3]: remain bound in vivo
binding with anti-epiregulin scFv-V2122 antibody in vivo (DLD1 tumor): remain bound in vivo

N=C1N[C@H]2[C@H](CS[C@H]2CCCCC(=O)NCCCCCC(=O)Nc2cc(NC(=O)CCCCCNC(=O)CCCC[C@@H]3SC[C@@H]4NC(=N)N[C@@H]43)cc(C(=O)NCCOCCOCCNC(=S)Nc3ccc4c(c3)C(=O)OC43c4ccc(O)cc4Oc4cc(O)ccc43)c2)N1 [FITC-labeled Compound B]
binding with Rituximab-scFv-V2122, shifts of fluorescence intensity (Rituximab-scFv-V2122): concentration-dependent shifts of fluorescence intensity were also confirmed

O=C(O)CCCC[C@@H]1SC[C@@H]2NC(=O)N[C@@H]21 [biotin, reference compound]
interaction with V2122 measured by ITC (V2122 [1]): non-interactive
